Test: gradient 5% acetonitrile 3 min, to 50% in 2 min, to 85% in 15 min, held 3 min, 100 µL/min
Settings: column: Zorbax Extend-C18 2.1 x 50 mm; eluents: water / acetonitrile, 0.1% formic acid
How it was run: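 The mobile phases were water and acetonitrile, each with 0.1% formic acid, pumped at 100 μL/min through a Zorbax Extend-C18 column (2.1 × 50 mm, 1.8 μm). Pure standards were injected as mixtures of ~100 molecules and detected by a quadrupole time-of-flight mass spectrometer in positive and negative ionization mode. Retention time came from computationally picked adduct peaks, each inspected by hand.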

RP-LC retention time [s]	SMILES
871	CCCN(CC1CCOC1)C(=O)Nc1ccccc1C(F)(F)F (stereo unspecified)
1170	O=C(Nc1nc(-c2cccc([N+](=O)[O-])c2)cs1)c1cccc(Br)c1
873	COc1ccc(-c2nnc(-c3ccc(C)c(S(=O)(=O)NC(C)C)c3)o2)cc1OC
989	CCCCC(=O)NC1(C(F)(F)F)C(=O)N(Cc2ccccc2)C(C)=C1C(=O)OC (stereo unspecified)
651	CCN(CC)c1ccc(-c2noc(CN3CCSCC3)n2)cn1
801	COc1cc(-c2nc(Cn3c(C)nc4ccccc4c3=O)no2)cc(OC)c1OC
937	COc1ccc(NC(=O)c2cn(CC3CCCO3)cc3c(=O)n(-c4ccccc4)nc2-3)cc1 (stereo unspecified)
1190	CCc1ccc(S(=O)(=O)N2CCc3nc(-c4ccc(F)cc4)ncc3C2)cc1
566	CCC(=O)c1ccc(OCC(O)CN(CC)Cc2ccccc2)cc1 (stereo unspecified)
635	COC(=O)c1ccc(C(=O)NCC2CCN(c3ncccn3)CC2)cc1
566	O=C(Nc1cccc(C(F)(F)F)c1)N1CCN(c2ccc(Nc3cccnc3)nn2)CC1
582	O=C(c1c(F)cccc1F)N1CCN=C1SCc1cccnc1
670	O=C(C1CCC1)N1CCC(Oc2cc(N3CCOCC3)ncn2)C1 (stereo unspecified)
696	CC(C)C(=O)NCc1cnn(-c2ccc(C(=O)N(C)Cc3ccco3)cc2)c1
604	Cc1ccc(C)c(C(=O)NCc2ccc3c(c2)ncn3C)c1
587	Cc1nnc2c(=O)n(CC(=O)N3CCN(C4CCCCC4)CC3)c3cccnc3n12
1210	Cc1ccc(-c2csc(NC(=O)CSc3nc4c(cc3C#N)CCC4)n2)cc1
568	CCCNC(=O)CN1CCN(c2cc(C(=O)O)c3cc(NC(=O)C(C)C)ccc3n2)CC1
833	CN1c2cc(C(=O)NCc3ccc(F)cc3Cl)ccc2C(=O)N2CCCCC21 (stereo unspecified)
810	COc1ccc(NC(=O)Cn2c(=O)c3cc(-c4cccs4)nn3c3ncccc32)cc1
584	O=C(NCc1ccc2c(c1)OCO2)C1CCCN(C(=O)c2cc(-c3cccnc3)n[nH]2)C1 (stereo unspecified)
643	Nc1ccc(/C=C/c2ccc3ncccc3c2)cc1
595	CCn1cc(CC(=O)NC(C)C)c2cccnc21

RP-LC retention time [s]	SMILES
1010	Cc1ccc(NC(=O)C(=O)NC(C)c2ccccc2)cc1C (stereo unspecified)
611	CC(=O)NCCc1nc2ccccc2n1CCCOc1cccc2ccccc12
869	O=C(CSc1nnc2c3sc(N4CCCC4)nc3ncn12)Nc1ccc(F)cc1Cl
1140	COc1ccc(Cl)cc1NC(=O)N1CCCC1c1nc(-c2ccccc2)no1 (stereo unspecified)
849	CC1=C(c2ccccc2)S(=O)(=O)N=C1N1CCCN(C(=O)Nc2cccc(F)c2)CC1
761	CC(C)n1cnc2ccc(-c3noc(-c4cccc(C#N)c4)n3)cc21
659	CC(C)OCCCNC(=O)C1CCN(c2nc3cccnc3s2)CC1
1010	CCOc1ccc(S(=O)(=O)N2CCC(C(=O)Nc3ccc(OC)cc3OC)CC2)cc1C
726	Cc1sc(-c2cc(C(F)(F)F)[nH]n2)cc1S(=O)(=O)N1CCN(C2CCCCC2)CC1
616	O=C(NCc1cccnc1)c1nnc(-c2ccc(S(=O)(=O)N3CCCC3)cc2)o1
1240	Cc1ccc(C2Cn3nnc(-c4nc(-c5ccccc5)no4)c3CO2)c(C)c1 (stereo unspecified)
574	COc1ccccc1CNC(=O)Cn1c(N)nc(C)cc1=O
766	CC(C)n1cnc(S(=O)(=O)N2CCCC(C(=O)N3CCN(c4ccccc4)CC3)C2)c1 (stereo unspecified)
645	COCCOc1ccc2c(c1)ncn2-c1ccc2cccc(N3CCC(N)CC3)c2n1
659	COc1ccc(CNC(=O)CN2C(=O)NC3(CCCCC3)C2=O)cc1OC
1130	Cc1ccc(Nc2c(-c3cccc(Br)c3)nc3ccc(Cl)cn23)cc1
658	O=C(NC1CCCCC1)c1ccc2ncnc(N3CCCCC3)c2c1
908	Cc1sc(NC(=O)C(C)(C)C)nc1-c1ccc2c(c1)NC(=O)C(C)O2 (stereo unspecified)
696	Cc1nc(CC(=O)Nc2ccc(F)cc2F)sc1C(=O)NC1CC1
633	O=C(CC1CCCCC1)NC1CCN(c2cc(-c3cccnc3)[nH]n2)CC1
686	CCCN(Cc1ccc(OCC)cc1)Cc1cc(=O)n2cc(Cl)ccc2n1
646	Cc1ccc2nc(C(=O)NCc3cccs3)cn2c1
1210	Cc1ccc(NC(=O)Cc2c(C)nn(-c3nc(-c4ccc(F)cc4)cs3)c2C)c(C)c1

RP-LC retention time [s]	SMILES
566	CN(C)C(CNC(=O)Nc1ccccc1C(F)(F)F)c1ccco1 (stereo unspecified)
582	Cc1ccccc1CNC(=O)c1ccc2c(c1)ncn2CCN1CCCC1
564	CCN1CCN(CCNC(=O)CN2CCCc3nc(C4CC4)ncc3C2=O)CC1
758	COC(=O)c1ncn2c1C(=O)N(Cc1ccc(Cl)cc1)C(C)(C(=O)NC1CCCC1)C2 (stereo unspecified)
856	COC(=O)CCc1sc(NC2CCCCC2)nc1-c1ccc(OC)cc1
667	CCC(=O)Nc1ccc(-n2cnc(C(=O)NCC(C)C)c2)nc1
663	Cn1ccc2cc(S(=O)(=O)N3CCCC(C(=O)N4CCN(c5ccccn5)CC4)C3)ccc21 (stereo unspecified)
589	O=C(NC1CCc2nnc(C3CC3)n2CC1)c1cccs1 (stereo unspecified)
660	Cc1nc(CC(=O)Nc2c(F)cccc2F)sc1C(=O)NC1CC1
836	Cc1nc2nc(-c3ccccc3)nn2c(C)c1CC(=O)N1CCCCC1C (stereo unspecified)
892	Clc1cc2c(nn1)Nc1ccccc1S2
781	O=C(CSC1CCCC1)NCCCC(=O)Nc1cccc2cccnc12
880	CC(C)CCNC(=O)NCCC1CCN(S(=O)(=O)c2ccc(F)cc2)CC1
1130	COC(=O)c1ccc2c(=O)n(-c3cccc(C)c3)c(N3CCSC3)nc2c1
747	Fc1cnccc1CN1CC2(CCCCC2)CC1COc1ccncc1 (stereo unspecified)
1090	CCn1cc(C(=O)Nc2ccccc2C)c(=O)c2ccc(C)nc21
880	COCCNS(=O)(=O)c1cccc(-c2nnc(-c3ccc(C)cc3)o2)c1
712	Cc1cccc(NC(=O)Cn2cnc3nc(N4CCCC(C(=O)NC(C)C)C4)sc3c2=O)c1C (stereo unspecified)
773	O=C(Cn1c(=O)n(-c2ccc(F)cc2)c2ncccc21)NC1CCCC1
1080	COc1cccc(-c2ccc(=O)n(Cc3nc(-c4cccc(Cl)c4)no3)n2)c1
984	O=C(Nc1cc(F)cc(F)c1)N1CCC(CCNC(=O)C2(c3ccccc3)CC2)CC1
678	CC(C)NC(=O)C1CCCN(c2nc3ncn(CC(=O)Nc4ccc5c(c4)OCO5)c(=O)c3s2)C1 (stereo unspecified)
955	CCc1ccccc1S(=O)(=O)N1CCC(N2CCN(Cc3ccc(C)cc3)C(=O)C2=O)CC1

RP-LC retention time [s]	SMILES
605	CC(=O)N1CCC(C(=O)Nc2nnc(C3CC3)s2)CC1
868	CN1C(=O)c2ccccc2Oc2ccc(C(=O)NCc3ccc(F)cc3)cc21
621	CN1C(=O)CO[C@@H](C(=O)O)[C@@H]1c1ccccc1
1150	CCCCn1nnc(NCc2ccc(-c3cccc(Cl)c3)o2)n1
909	Cc1cc(F)ccc1NC(=O)Cn1nc2cc(-c3ccccc3)nc(C)n2c1=O
550	NCCc1nc(-c2ccccc2)cs1
1230	COc1ccc(OC)c(NC(=O)c2csc(-c3ccc(C)n3C)n2)c1
963	COc1ccc(-c2nc(C3CC(=O)N(c4ccc(F)c(Cl)c4)C3)no2)cc1OC (stereo unspecified)
819	Cc1ccc(NC(=O)CN2C(=O)NC(c3ccccc3Cl)C3=C2COC3=O)cc1C (stereo unspecified)
912	COc1cccc(-c2ccc(SCC(=O)Nc3ccccc3C(F)(F)F)nn2)c1
684	Nc1cc(C2CCN(C(=O)Cc3ccc(F)cc3)CC2)no1
746	COc1ccccc1CNC(=O)C1CCCN(c2ncnc3c2oc2ccccc23)C1 (stereo unspecified)
829	O=C(C1CCN(S(=O)(=O)c2cc(-c3noc(C4CC4)n3)cs2)CC1)N1CCCC1
718	CCOC(=O)COC(=O)c1cn(-c2cccc(C)c2)c(=O)c2ccccc12
669	CCNC(=O)Nc1ccc(OCC(=O)NCc2cccc(OC)c2)nc1
593	COc1ccc(-c2cn3c(n2)N(C(=O)Cn2ccnc2)CCC3)cc1
753	CCn1cnc(S(=O)(=O)N2CCCC(C(=O)Nc3ccc(C)cc3C)C2)c1 (stereo unspecified)
679	O=C(O)COc1ccc(OCCNC[C@H](O)COc2ccccc2)cc1
1010	CC(C)c1ccc(S(=O)(=O)N(C)CC2CCOCC2)cc1
576	Cc1ccc2c(Nc3ccc(C#N)cc3)c(C(=O)N3CCCC3)cnc2n1
1030	O=C(NCc1cc(F)cc(F)c1)c1sc2ncccc2c1-n1cccc1

SMILES	RP-LC retention time [s]
CNC(C)Cc1ccccc1OC (stereo unspecified)	646

From the METLIN SMRT retention time set (Domingo-Almenara et al. 2019)
